Ten compounds from ChEMBL document CHEMBL1201862, “PubChem BioAssay data set” (2004) can be followed below.

Assay in all cases: NCI-60 cell line screen, 48 h
Experiment [1] concerns HL-60.
Experiment [2] concerns HOP-92.
Experiment [3] concerns CAKI-1.
The test system of experiment [4] is NCI/ADR-RES.
In experiment [5] the test system is HCC 2998.
Experiment [6] relates to MDA-MB-435.
Experiment [7] deals with OVCAR-3.
Experiment [8] relates to OVCAR-5.
Experiment [9] deals with U-251.
The subject of experiment [10] is SR.
Experiment [11] relates to RXF 393.
Experiment [12] concerns COLO 205.
The test system of experiment [13] is A498.
Experiment [14] has as its system SNB-75.
Experiment [15] relates to K562.
Experiment [16] concerns HT-29.
Experiment [17] deals with NCI-H460.
The test system of experiment [18] is SF-268.
Experiment [19] deals with Hs-578T.

The structures appear in SMILES notation.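 Step 1: Grow cells in 96-well plates. Step 2: Expose to compound for 48 hours at 5 concentrations. Step 3: Interpolate endpoints linearly; if unreached, use highest concentration. GI50: concentration for 50% inhibition of growth.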 Calls of active or inactive are those of the source. Rule as the data show it: active = GI50 up to about 1.1 µM and inactive = higher.

As to `CCOC(=O)/C(=C/Nc1c(C)n(C)n(-c2ccccc2)c1=O)C(C)=O`, the GI50 in [1], in experiment [2], in experiment [3], in [4], in experiment [5] and in [6] was > 100 µM (inactive) each time. For the same compound, the GI50 in [7], in experiment [8], in experiment [9], in experiment [10], in experiment [11] and in [12] was > 100 µM (inactive) each time. Further, the GI50 in experiment [13], in experiment [14] and in experiment [15] was > 100 µM (inactive) throughout.

Consider `CC1(C)Cc2ccccc2C(C)(Cl)C(=O)N1` (configuration not stated), for which the GI50 in experiment [16], in [1], in experiment [2], in experiment [3], in [4] and in experiment [5] was > 10 µM (inactive) each time. Also, the GI50 in [17], in [6], in experiment [7], in [8], in [9] and in [10] was > 10 µM (inactive) in each case. Moreover, the GI50 in [18], in [11], in [12], in experiment [13] and in [15] was > 10 µM (inactive) in each case.

Consider `COc1c(Br)cc(Br)c(OC)c1-c1ccc[nH]1`, for which the GI50 in [16] was 38.8 µM (inactive); in experiment [1] it was 31.6 µM (inactive); in experiment [2] it was 37.3 µM (inactive); in [3] it was 13.3 µM (inactive); in [17], > 100 µM (inactive); in experiment [7], > 100 µM (inactive). Besides, the GI50 in experiment [8] is > 100 µM (inactive); in experiment [9], > 100 µM (inactive); in experiment [18], > 100 µM (inactive); in experiment [12], > 100 µM (inactive); in [13], > 100 µM (inactive); in experiment [14], 22.1 µM (inactive). Besides, the GI50 in [15] was 22.3 µM (inactive).

Regarding `CC[C@H](C)C1=C(OC(C)=O)[N@+]2([O-])Oc3ccc(-c4c(OC(C)=O)c(OC(C)=O)c(-c5ccc(OC(C)=O)cc5)c(OC(C)=O)c4OC(C)=O)cc3O[C@]2([C@@H](C)CC)C(=O)N1OC(C)=O`, the GI50 was 15.6 µM (inactive) in [16]; 10.5 µM (inactive) in experiment [1]; 20 µM (inactive) in experiment [3]; 17.9 µM (inactive) in [4]; 0.00766 µM (active) in [5]; 20 µM (inactive) in [17]. For the same compound, the GI50 was 16 µM (inactive) in experiment [6]; 9.29 µM (inactive) in experiment [7]; 29.2 µM (inactive) in experiment [8]; 16 µM (inactive) in [9]; 12.6 µM (inactive) in experiment [10]; 14.7 µM (inactive) in [18]. Besides, the GI50 in experiment [11] was 38.3 µM (inactive); in [12], 8.15 µM (inactive); in experiment [13] it was 14.1 µM (inactive); in [14] it was 12 µM (inactive); in [15], 14.5 µM (inactive).

Turning to `NNC(=O)COc1nc(-c2cccs2)nc2ccc(I)cc12`, the GI50 in [16] was 34.4 µM (inactive); in [2] it was 18 µM (inactive); in [3], 17.6 µM (inactive); in experiment [4], 28.1 µM (inactive); in experiment [5], 20 µM (inactive); in [17], 21.8 µM (inactive). The GI50 is 20.1 µM (inactive) in experiment [6]; 15.9 µM (inactive) in [7]; 28.4 µM (inactive) in experiment [8]; 18.7 µM (inactive) in experiment [9]; 15.8 µM (inactive) in [10]; 20.8 µM (inactive) in [18]. Also, the GI50 in experiment [11] was 34.3 µM (inactive); in [12], 26.8 µM (inactive); in experiment [14], 22.7 µM (inactive).

With `Cc1nn(C(=O)Cc2ccccc2)c2c1C(c1ccc(N(C)C)cc1)SC(=N)N2` (configuration not stated), the GI50 in [16], in [1], in [3], in experiment [5], in experiment [17] and in experiment [6] was > 100 µM (inactive) in each case. Moreover, the GI50 in experiment [19] is 24.5 µM (inactive); in [10], > 100 µM (inactive); in experiment [18], > 100 µM (inactive); in experiment [12], > 100 µM (inactive); in experiment [13], > 100 µM (inactive); in [14] it was 12.4 µM (inactive).

For `CCCC(=O)OCC(O)CO` (configuration not stated), the GI50 was > 5000 µM (inactive) in experiment [16]; 2920 µM (inactive) in [1]; 3080 µM (inactive) in [2]; 2040 µM (inactive) in [3]; 4570 µM (inactive) in [17]; 2810 µM (inactive) in experiment [8]. Also, the GI50 in experiment [9] is > 5000 µM (inactive); in experiment [10], > 5000 µM (inactive); in experiment [18], > 5000 µM (inactive); in [11], 3090 µM (inactive); in [12] it was > 5000 µM (inactive); in experiment [14], > 5000 µM (inactive). Moreover, the GI50 in experiment [15] was 4880 µM (inactive).

On to `CCCCN(CCCC)CC(O)c1cc(-c2ccc(Cl)c(Cl)c2)nc2c(Cl)cc(Cl)cc12` (configuration not stated), for which the GI50 was > 100 µM (inactive) in experiment [16]; 88.3 µM (inactive) in [1]; > 100 µM (inactive) in experiment [4]; 16.2 µM (inactive) in [5]; > 100 µM (inactive) in [17]; > 100 µM (inactive) in [6]. Besides, the GI50 in [7] is > 100 µM (inactive); in experiment [8], > 100 µM (inactive); in [9] it was > 100 µM (inactive); in [10], 42.6 µM (inactive); in experiment [18], 39.7 µM (inactive); in experiment [12], > 100 µM (inactive). Moreover, the GI50 is > 100 µM (inactive) in experiment [13], > 100 µM (inactive) in experiment [14] and > 10 µM (inactive) in experiment [15].

For the compound `NC(c1ccccc1)(C(F)(F)F)P1(=O)OC(=O)c2ccccc2O1` (configuration not stated), the GI50 is > 100 µM (inactive) in [16]; 20.9 µM (inactive) in experiment [2]; > 100 µM (inactive) in experiment [3]; > 100 µM (inactive) in experiment [4]; > 100 µM (inactive) in experiment [5]; > 100 µM (inactive) in experiment [17]. Besides, the GI50 in experiment [6] is > 100 µM (inactive); in experiment [7], > 100 µM (inactive); in experiment [8], > 100 µM (inactive); in experiment [9] it was > 100 µM (inactive); in [10] it was 71.8 µM (inactive); in experiment [18], > 100 µM (inactive). In addition, the GI50 was > 100 µM (inactive) in experiment [11]; > 100 µM (inactive) in [12]; 84.1 µM (inactive) in experiment [13]; > 100 µM (inactive) in [14]; > 100 µM (inactive) in [15].

Consider `CC12CC3C(CC1SCC(=O)O2)C3(C)C` (configuration not stated), for which the GI50 in [16], in [1], in [2], in experiment [5], in experiment [17] and in [7] was > 100 µM (inactive) each time. Besides, the GI50 is > 100 µM (inactive) in [8]; > 100 µM (inactive) in [9]; > 100 µM (inactive) in [18]; > 100 µM (inactive) in [12]; 16.6 µM (inactive) in experiment [13]; > 100 µM (inactive) in experiment [14]. For the same compound, in experiment [15], the GI50 is > 100 µM (inactive).
